The values below are quoted from earlier work in patent US20220001014A1 (priority 2020, published 2022).

For one series, the target named is ACE (Homo sapiens, UniProt P12821).
The next series addresses Neprilysin (Homo sapiens, UniProt P08473).
In the next series the target is T1, Bradykinin B2 (Homo sapiens, UniProt P30411).
T1 construct: host or cells: subjects in vivo (endogenous receptor)
T1 sequence (P30411 1-391): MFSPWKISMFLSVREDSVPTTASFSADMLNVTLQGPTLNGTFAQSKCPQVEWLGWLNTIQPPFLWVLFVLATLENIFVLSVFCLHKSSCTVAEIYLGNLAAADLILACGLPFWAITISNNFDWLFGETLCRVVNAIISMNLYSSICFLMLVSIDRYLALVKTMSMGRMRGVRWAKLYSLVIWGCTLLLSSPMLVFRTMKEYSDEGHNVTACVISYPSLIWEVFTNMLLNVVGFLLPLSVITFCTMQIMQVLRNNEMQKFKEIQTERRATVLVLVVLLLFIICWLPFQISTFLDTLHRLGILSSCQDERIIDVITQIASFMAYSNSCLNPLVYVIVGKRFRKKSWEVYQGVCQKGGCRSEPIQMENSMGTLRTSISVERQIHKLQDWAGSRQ
To be noted: 18 μg/kg/h iv for 6 h; sodium-deplete normotensive and hypertensive subjects.

For series [1] the following is noted: in vivo.
Another series has as its system SARS-COV2. To be noted: recent in vitro studies.
Series [2] has as its system SARS-CoV. The settings on record: lung epithelial cell lines.
Series [3] relates to SARS-CoV. To be noted: mice; dosed at concentrations similar to the clinically achievable concentration in humans; reduced from 100%.
For series [4] the following is noted: injection; LPS-induced acute lung injury.

Counter-ions that a name gives are not always drawn.

ACE, sequence (P12821 30-1306, species assumed): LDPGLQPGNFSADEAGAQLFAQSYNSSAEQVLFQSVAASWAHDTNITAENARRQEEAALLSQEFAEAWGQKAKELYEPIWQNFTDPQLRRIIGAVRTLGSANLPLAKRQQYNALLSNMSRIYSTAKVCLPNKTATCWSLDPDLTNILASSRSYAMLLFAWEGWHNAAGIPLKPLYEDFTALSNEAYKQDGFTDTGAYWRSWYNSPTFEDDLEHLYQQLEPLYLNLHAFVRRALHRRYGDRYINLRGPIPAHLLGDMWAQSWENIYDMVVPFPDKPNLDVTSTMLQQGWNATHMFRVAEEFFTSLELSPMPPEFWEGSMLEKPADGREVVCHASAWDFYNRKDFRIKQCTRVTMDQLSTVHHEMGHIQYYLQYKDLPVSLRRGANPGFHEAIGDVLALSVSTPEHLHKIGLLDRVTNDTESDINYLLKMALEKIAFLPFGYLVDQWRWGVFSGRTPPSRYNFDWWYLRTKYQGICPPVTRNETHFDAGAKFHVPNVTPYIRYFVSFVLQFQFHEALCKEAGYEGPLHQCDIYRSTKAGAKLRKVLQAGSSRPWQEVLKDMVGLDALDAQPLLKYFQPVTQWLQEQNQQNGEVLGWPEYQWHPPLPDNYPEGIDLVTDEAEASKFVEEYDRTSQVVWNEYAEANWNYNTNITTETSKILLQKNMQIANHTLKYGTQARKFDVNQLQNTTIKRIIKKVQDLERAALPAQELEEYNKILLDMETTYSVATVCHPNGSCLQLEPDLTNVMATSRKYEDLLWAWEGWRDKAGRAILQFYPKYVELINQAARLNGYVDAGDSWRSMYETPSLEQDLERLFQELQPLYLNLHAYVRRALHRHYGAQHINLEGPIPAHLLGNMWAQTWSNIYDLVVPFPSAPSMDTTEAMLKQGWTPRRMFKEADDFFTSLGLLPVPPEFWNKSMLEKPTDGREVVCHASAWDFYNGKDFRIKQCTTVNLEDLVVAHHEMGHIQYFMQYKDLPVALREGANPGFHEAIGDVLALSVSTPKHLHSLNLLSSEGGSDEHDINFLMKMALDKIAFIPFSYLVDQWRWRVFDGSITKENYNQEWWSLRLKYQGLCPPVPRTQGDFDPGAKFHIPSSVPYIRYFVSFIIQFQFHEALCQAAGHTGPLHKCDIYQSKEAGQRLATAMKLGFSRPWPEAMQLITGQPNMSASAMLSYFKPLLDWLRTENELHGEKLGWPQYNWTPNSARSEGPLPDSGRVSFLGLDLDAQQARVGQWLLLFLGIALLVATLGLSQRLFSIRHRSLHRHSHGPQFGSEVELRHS
Neprilysin, sequence (P08473 whole entry, species assumed): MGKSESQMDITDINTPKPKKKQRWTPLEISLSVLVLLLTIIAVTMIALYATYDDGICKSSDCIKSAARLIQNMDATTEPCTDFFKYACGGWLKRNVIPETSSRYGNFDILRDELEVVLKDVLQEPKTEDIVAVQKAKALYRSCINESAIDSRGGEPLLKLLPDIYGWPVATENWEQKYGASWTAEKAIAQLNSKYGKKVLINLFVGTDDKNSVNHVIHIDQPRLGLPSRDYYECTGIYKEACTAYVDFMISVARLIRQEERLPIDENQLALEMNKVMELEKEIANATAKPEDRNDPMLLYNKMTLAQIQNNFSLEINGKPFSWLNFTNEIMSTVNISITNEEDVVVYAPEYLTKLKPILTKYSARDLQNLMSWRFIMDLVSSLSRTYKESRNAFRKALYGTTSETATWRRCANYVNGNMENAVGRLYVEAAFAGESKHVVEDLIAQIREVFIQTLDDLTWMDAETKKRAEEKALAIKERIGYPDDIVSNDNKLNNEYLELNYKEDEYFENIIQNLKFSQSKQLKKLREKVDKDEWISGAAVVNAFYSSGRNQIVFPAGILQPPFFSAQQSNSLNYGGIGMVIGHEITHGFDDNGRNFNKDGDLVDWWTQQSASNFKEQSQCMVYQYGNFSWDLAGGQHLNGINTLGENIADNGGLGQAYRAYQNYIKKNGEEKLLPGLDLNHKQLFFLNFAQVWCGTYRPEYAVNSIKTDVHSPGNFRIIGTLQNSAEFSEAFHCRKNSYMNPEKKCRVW

`CC(=O)SC[C@@H](Cc1ccccc1)C(=O)NCC(=O)OCc1ccccc1` [Ecadotril]: the ACE inhibition on ACE is recorded as 23%. Besides, at Neprilysin, the Neprilysin inhibition is 99%.

As for `NC(N)=NCCC[C@@H](N)C(=O)N[C@@H](CCCN=C(N)N)C(=O)N1CCC[C@H]1C(=O)N1C[C@H](O)C[C@H]1C(=O)NCC(=O)N[C@@H](Cc1cccs1)C(=O)N[C@@H](CO)C(=O)N1Cc2ccccc2C[C@@H]1C(=O)N1[C@H](C(=O)N[C@@H](CCCN=C(N)N)C(=O)O)C[C@@H]2CCCC[C@@H]21` [Icatibant], the “attenuation of hypotensive effects of acute or chronic valsartan” value on Bradykinin B2 is “did not attenuate”.

In the case of `NCCCC[C@H](N[C@@H](CCc1ccccc1)C(=O)O)C(=O)N1CCC[C@H]1C(=O)O` [Lisinopril], the ACE inhibition at ACE is 83%.

For `O=C(N[C@H]1CCS[C@H]2CCC[C@@H](C(=O)O)N2C1=O)[C@@H](S)Cc1ccccc1` [Omapatrilat], at ACE, the ACE inhibition is reported as greater than 90%. Further, the Neprilysin inhibition at Neprilysin is 53%.

Consider `Cn1c(=O)cc(N2CCC[C@@H](N)C2)n(Cc2ccccc2C#N)c1=O` [alogliptin], for which, in series [1], the joint pains result is given as “can cause severe joint pains”.

`CN(C)C(=O)COC(=O)Cc1ccc(OC(=O)c2ccc(NC(=N)N)cc2)cc1` [camostat mesylate, Camostat mesylate]: the “inhibition of SARS-COV2 viral entry” value in the series with SARS-COV2 is listed as “did not fully inhibit”. The “entry of viruses into host cells” value in the series with SARS-CoV [2] is reported as “left some residual entry of viruses”. In addition, the “mortality following SARS-CoV infection” value in the series with SARS-CoV [3] was 30-35%.

Regarding `CC#CCn1c(N2CCC[C@@H](N)C2)nc2c1c(=O)n(Cc1nc(C)c3ccccc3n1)c(=O)n2C` [linagliptin], the joint pains entry in series [1] was “can cause severe joint pains”.

As to `N[C@@H](CC(=O)N1CCn2c(nnc2C(F)(F)F)C1)Cc1cc(F)c(F)cc1F` [sitagliptin], the joint pains entry in series [1] is “can cause severe joint pains”.

In the case of “rhACE2: rhACE2, injected in LPS-induced acute lung injury”, the “lung injury and inflammation” value in series [4] was “improved lung injury and inflammation”.
